System: 14-3-3
Assay: Binding of p53 peptides to 14-3-3, isoform not given
Settings: isoform not specified; wild-type p53CT tested up to 200 µM; pS392 by AUC

“WT TC (293–393): wild-type tetramerization plus C-terminal domains of p53 (293–393), semi-synthetic” was tested, and the “binding to 14-3-3 (in words)” value was “very weak binding”.

Reference: article PMC2566891 (Nucleic Acids Research, 2008)
